Data taken from patent publication US10766869B2, “Triazoles for the treatment of demyelinating dieases” (Vertex Pharmaceuticals Incorporated, priority 2015, dated 2020).

Tested on: primary rat mixed cortical cells
Assay: In vitro myelination assay (MBP positive myelin strands, fold myelin pixels above background)
Format: cell-based
Details: Rattus norvegicus, read-out: Fold myelin pixels above background relative to baseline of no added compound; for fold induction at 1 µM: 1.0 μM compound; for fold induction at 10 µM: 10.0 μM compound
Procedure, shortened: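 Fourteen-day treatment of primary P1 rat mixed cortical cultures, re-dosed at days 6 and 10, at 1.0 μM and 10.0 μM. MBP immunofluorescence was imaged at 10× and myelin strands quantified by software, normalised to untreated wells as fold above background.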

Structure (SMILES) | fold induction at 1 µM | fold induction at 10 µM
CCOCCN1CCN(c2cc(C)cc(Nc3ncn(-c4cc(F)cc(F)c4)n3)c2)CC1C (stereo not drawn) [Compound 1063, 1-(3,5-difluorophenyl)-N-[3-[4-(2-ethoxyethyl)-3-methyl-piperazin-1-yl]-5-methyl-phenyl]-1,2,4-triazol-3-amine] | 10 to 100 | ≤ 1
Cc1cc(Nc2ncn(-c3cc(F)cc(F)c3)n2)cc(NC2CCN(C3CCOC3)CC2)c1 (stereo not drawn) [Compound 1064, N3-[1-(3,5-difluorophenyl)-1,2,4-triazol-3-yl]-5-methyl-N1-(1-tetrahydrofuran-3-yl-4-piperidyl)benzene-1,3-diamine] | 10 to 100 | ≤ 1
COC1CCCC1Nc1cc(C)cc(Nc2ncn(-c3cc(F)cc(F)c3)n2)c1 (stereo not drawn) [Compound 1065, N3-[1-(3,5-difluorophenyl)-1,2,4-triazol-3-yl]-N1-(2-methoxycyclopentyl)-5-methyl-benzene-1,3-diamine] | 10 to 100 | 1 to 10
[2H]C1([2H])OC([2H])([2H])C([2H])([2H])N(c2cc(C)cc(Nc3ncn(-c4ccc(F)c(F)c4)n3)c2)C1([2H])[2H] [Compound 1066, 1-(3,4-difluorophenyl)-N-[3-methyl-5-(2,2,3,3,5,5,6,6-octadeuteriomorpholin-4-yl)phenyl]-1,2,4-triazol-3-amine] | 10 to 100 | ≤ 1
COCCN1CCN(c2cc(C)cc(Nc3ncn(-c4cc(F)cc(F)c4)n3)c2)CC1=O [Compound 1067, 4-[3-[[1-(3,5-difluorophenyl)-1,2,4-triazol-3-yl]amino]-5-methyl-phenyl]-1-(2-methoxyethyl)piperazin-2-one] | 1 to 10 | ≤ 1
COC1CCN(C2CCN(c3cc(C)cc(Nc4ncn(-c5cc(F)cc(F)c5)n4)c3)CC2)CC1 [Compound 1068, 1-(3,5-difluorophenyl)-N-[3-[4-(4-methoxy-1-piperidyl)-1-piperidyl]-5-methyl-phenyl]-1,2,4-triazol-3-amine] | 10 to 100 | 10 to 100
Cc1cc(Nc2ncn(-c3cc(F)cc(F)c3)n2)nc(OCC2COC2)c1 [Compound 1069, N-[1-(3,5-difluorophenyl)-1,2,4-triazol-3-yl]-4-methyl-6-(oxetan-3-ylmethoxy)pyridin-2-amine] | 1 to 10 | 1 to 10
Cc1cc(Nc2ncn(-c3cc(F)cc(F)c3)n2)cc(NC2CCN(C3CCC3)CC2)c1 [Compound 1070, N1-(1-cyclobutyl-4-piperidyl)-N3-[1-(3,5-difluorophenyl)-1,2,4-triazol-3-yl]-5-methyl-benzene-1,3-diamine] | 10 to 100 | ≤ 1
Cc1cc(Nc2ncn(-c3cccc(F)c3)n2)cc(N2CC3(C2)CN(C(C)C)C3)c1 [Compound 1071, 1-(3-fluorophenyl)-N-[3-(2-isopropyl-2,6-diazaspiro[3.3]heptan-6-yl)-5-methyl-phenyl]-1,2,4-triazol-3-amine] | 10 to 100 | ≤ 1
Cc1cc(Nc2ncn(-c3cc(F)cc(F)c3)n2)c(F)c(N2CC3(C2)CN(C(C)C)C3)c1 [Compound 1072, 1-(3,5-difluorophenyl)-N-[2-fluoro-3-(2-isopropyl-2,6-diazaspiro[3.3]heptan-6-yl)-5-methyl-phenyl]-1,2,4-triazol-3-amine] | 1 to 10 | ≤ 1
Cc1cc(Nc2ncn(-c3cc(F)cc(F)c3)n2)cc(N2CCOC(CO)C2)c1 (stereo not drawn) [Compound 1073, [4-[3-[[1-(3,5-difluorophenyl)-1,2,4-triazol-3-yl]amino]-5-methyl-phenyl]morpholin-2-yl]methanol] | 10 to 100 | ≤ 1
Cc1cc(Nc2ncn(-c3cc(F)cc(F)c3)n2)cc(N2CCC(OCCN3CCCC3)CC2)c1 [Compound 1074, 1-(3,5-difluorophenyl)-N-[3-methyl-5-[4-(2-pyrrolidin-1-ylethoxy)-1-piperidyl]phenyl]-1,2,4-triazol-3-amine] | 1 to 10 | ≤ 1
COCC(=O)N1CC(C)(Nc2cc(C)cc(Nc3ncn(-c4cc(F)cc(F)c4)n3)c2)C1 [Compound 1075, 1-[3-[3-[[1-(3,5-difluorophenyl)-1,2,4-triazol-3-yl]amino]-5-methyl-anilino]-3-methyl-azetidin-1-yl]-2-methoxy-ethanone] | 1 to 10 | ≤ 1
Cc1cc(Nc2ncn(-c3cc(F)cc(F)c3)n2)cc(N2CC(C)(C#N)C2)c1 [Compound 1076, 1-[3-[[1-(3,5-difluorophenyl)-1,2,4-triazol-3-yl]amino]-5-methyl-phenyl]-3-methyl-azetidine-3-carbonitrile] | 10 to 100 | ≤ 1
Cc1cc(Nc2ncn(-c3cc(F)cc(F)c3)n2)cc(N2CCCC2CN2CCCC2CO)c1 (stereo not drawn) [Compound 1077, [1-[[1-[3-[[1-(3,5-difluorophenyl)-1,2,4-triazol-3-yl]amino]-5-methyl-phenyl]pyrrolidin-2-yl]methyl]pyrrolidin-2-yl]methanol] | 1 to 10 | ≤ 1
Cc1cc(Nc2ncn(-c3cc(F)cc(F)c3)n2)cc(N2CCN(CC(O)CN(C)C)CC2)c1 (stereo not drawn) [Compound 1078, 1-[4-[3-[[1-(3,5-difluorophenyl)-1,2,4-triazol-3-yl]amino]-5-methyl-phenyl]piperazin-1-yl]-3-(dimethylamino)propan-2-ol] | 1 to 10 | ≤ 1
Cc1cc(Nc2ncn(-c3cc(F)cc(F)c3)n2)cc(N2CC(F)(CO)C2)c1 [Compound 1079, [1-[3-[[1-(3,5-difluorophenyl)-1,2,4-triazol-3-yl]amino]-5-methyl-phenyl]-3-fluoro-azetidin-3-yl]methanol] | 10 to 100 | ≤ 1
[2H]c1nc(Nc2cc(C)cc(N3CCN(C4COC4)CC3)c2)nn1-c1cc(F)cc(F)c1 [Compound 1080, 5-deuterio-1-(3,5-difluorophenyl)-N-[3-methyl-5-[4-(oxetan-3-yl)piperazin-1-yl]phenyl]-1,2,4-triazol-3-amine] | 10 to 100 | 10 to 100
Cc1cc(Nc2ncn(-c3cc(F)cc(F)c3)n2)cc(N2CC3(C2)CN(C(C)C)C3)c1 [Compound 1081, 1-(3,5-difluorophenyl)-N-[3-(2-isopropyl-2,6-diazaspiro[3.3]heptan-6-yl)-5-methyl-phenyl]-1,2,4-triazol-3-amine] | 1 to 10 | 1 to 10
Cc1cc(NCCN2CCOCC2C)cc(Nc2ncn(-c3cc(F)cc(F)c3)n2)c1 (stereo not drawn) [Compound 1082, N1-[1-(3,5-difluorophenyl)-1,2,4-triazol-3-yl]-5-methyl-N3-[2-(3-methylmorpholin-4-yl)ethyl]benzene-1,3-diamine] | 10 to 100 | ≤ 1
Cc1cc(Nc2ncn(-c3cc(F)cc(F)c3)n2)cc(N2CCC(C3CCOC3)C2)c1 (stereo not drawn) [Compound 1083, 1-(3,5-difluorophenyl)-N-[3-methyl-5-(3-tetrahydrofuran-3-ylpyrrolidin-1-yl)phenyl]-1,2,4-triazol-3-amine] | 1 to 10 | ≤ 1
